Measurements taken from patent publication US20230277533A1, “THERAPEUTIC COMBINATIONS COMPRISING UBIQUITIN-SPECIFIC-PROCESSING PROTEASE 1 (USP1) INHIBITORS AND POLY (ADP-RIBOSE) POLYMERASE (PARP) INHIBITORS” (KSQ Therapeutics, Inc., priority 2020, published 2023).

Experiment: Drug-drug interaction pharmacokinetics, plasma systemic exposure
Format: in vivo, NOD SCID mice
Settings: Formula I 100 mg/kg + Olaparib 50 mg/kg, oral qd 5 days, Day 1 and Day 5, plasma
Description: The drug-drug interaction (DDI) of the USP1 inhibitor Formula I co-crystal in combination with Olaparib was evaluated in mice by assessing plasma systemic exposure over time. 6-8 week old female NOD SCID mice from Beijing Anikeeper Biotech Co. Ltd were randomized into groups of 4 and dosed via oral gavage once daily for 5 days with Formula I (100 mg/kg) alone, Olaparib (50 mg/kg) alone, or with Formula I (100 mg/kg) and Olaparib (50 mg/kg) in combination.
For Olaparib (50 mg/kg) alone or in combination with for Formula I (100 mg/kg), blood samples were collected from each mouse at the following time points post day 1 and day 5 dose: pre-dose, 0.5 hr, 1 hr, 2 hr, 6 hr, 12 hr, 24 hr. For Formula I alone (100 mg/kg) or in combination with Olaparib (50 mg/kg), blood samples were collected from each mouse at the following time points post day 1 and day 5: pre-dose, 1 hr, 2 hr, 4 hr, 8 hr, 12 hr, and 24 hr.

COc1ncnc(C2CC2)c1-c1ncc2cnn(Cc3ccc(-c4nc(C(F)(F)F)cn4C(C)C)cc3)c2n1 [Formula I, 6-(4-cyclopropyl-6-methoxypyrimidin-5-yl)-1-(4-(1-isopropyl-4-(trifluoromethyl)-1H-imidazol-2-yl)benzyl)-1H-pyrazolo[3,4-d]pyrimidine]
Formula I exposure on co-administration with Olaparib: does not increase Formula I exposure
